Assay results reported in patent US20250388572A1, “USE OF HPK1 INHIBITOR IN PREVENTION AND/OR TREATMENT OF HUMAN PATHOGEN INFECTION” (priority 2022, published 2025).

Tests used:
[1] = beagle, dog, microsomes, 1 h, 10 µM
Protocol: The procedure for identifying microsomal metabolites is as follows:
The compounds (test compounds and their numbers are shown below, among which compounds A1 and B1 are prepared by referring to the relevant method disclosed in CN110396087A) were weighed and dissolved into dimethyl sulfoxide to prepare a 20 mM solution. The compound stock solution was diluted with 50% acetonitrile in water (v/v) to a concentration of 1.0 mM as a working solution. Liver microsomes (20 mg/mL) were diluted to 1.27 mg/mL with 50 mM dipotassium hydrogen phosphate buffer as a liver microsome working solution. Reduced coenzyme was weighed and dissolved in 3307 μL of phosphate buffer (50 mM) to 5.0 mM as a reduced coenzyme working solution. For T=60 minutes samples, 4 μL of test working solution (1.0 mM) was added, followed by 316 μL of liver microsome working solution (1.27 mg/mL), and finally, 80 μL of reduced coenzyme working solution was added to start the reaction. For T=0 minutes samples, 316 μL of liver microsome working solution (1.27 mg/mL) was added and then 80 μL of reduced coenzyme working solution was added to start the reaction, without test solution incubation. After incubation at 37° C. for 60 minutes, 1200 μL of stop solution was added to stop the enzyme reaction. For T=0 minute samples, 4 μL of test working solution (1.0 mM) was added. The sample plate was placed on a vortexer and vortexed at 600 rpm for 5 minutes. Then, the sample plate was centrifuged at 4000 rpm for 10 minutes. The supernatant was removed, mixed, and dried at room temperature with nitrogen. The residue dried with nitrogen was redissolved in 300 μL of 10% acetonitrile (0.1% FA) solvent and then centrifuged at 4000 rpm for 15 minutes. The supernatant was transferred to a detection plate for mass spectrometry. Mass spectrometry was performed using LC/Q-Exactive plus.
7-Ethoxycoumarin (10 μM) was selected as a positive control compound and operated in parallel with the compounds.

in vivo [2] = conditions: male, Sprague Dawley, rat
Protocol: Six male Sprague Dawley rats were administrated a single dose via intravenous injection (iv, n=3) and oral administration (po, n=3), respectively. Intravenous injection was performed by formulating the compounds into 0.25 mg/ml or 0.5 mg/mL solutions using 10% DMSO/30% PEG400/60% water and administering it at a volume of 2 mL/kg. Oral administration was performed by formulating the compounds into 0.6 mg/ml or 2.0 mg/mL homogeneous suspensions using 0.5% methylcellulose and administering it at a volume of 5 mL/kg.
The pharmacokinetic parameters of the compounds were calculated using the WinNolin non-compartmental model.

in vivo [3] = conditions: male, cynomolgus monkey
Protocol: Three male Cynomolgus macaques were administrated a single dose via intravenous injection (iv, 1 mg/kg, n=3), followed by oral administration (po, 10 mg/kg, n=3) after washing out for one week. Intravenous injection was performed by formulating the compounds into 1.0 mg/mL solutions using water or 10% DMSO/30% PEG400/water and administering it at a volume of 1 mL/kg. Oral administration was performed by formulating the compounds into 2.0 mg/mL solutions or suspensions using water or 0.5% methylcellulose/1.7 meq 1N hydrochloric acid and administering it at a volume of 5 mL/kg.
The pharmacokinetic parameters of the compounds were calculated using the non-compartmental model.

SARS-Cov-2 virus = test: Pharmacodynamic evaluation for Covid 19 in hamsters; type: in vivo, Syrian golden hamsters
Protocol: A total of 20 wild-type Syrian golden hamsters, aged 6-8 weeks, with half male and half female, were randomly divided into two groups: control group (n=4), and therapy group consisting of 5 mg/kg and 20 mg/kg groups, with 8 mice per group. Starting from day 0 (DO), the hamsters in the therapy group were given A2 orally at a total daily dose of 5 mg/kg or 20 mg/kg, and the control group was given an equal amount of blank drug orally daily. Meanwhile, on day 0, all hamsters were anesthetized and then inoculated intranasally with 100 uL of 1.375×10^6 PFU/mL SARS-Cov-2 virus. Clinical manifestations and body weight were monitored daily. At the end of the study, tissues (e.g., lungs) were collected and weighed, and virus RNA and infectious virus were then quantified.

H1N1 (PR8 strain) = test: Pharmacodynamic evaluation for H1N1 in mice; type: in vivo, C57BL/6 mice; conditions: 3 mg/kg, oral
Protocol: Six to eight-week-old female SPFC 57BL/6 mice (VitalRiver Laboratory Animal Technology Co., Ltd., SCXK (Beijing) 2016-0006, Beijing version) were infected with H1N1 (PR8 strain) and stimulated intranasally with 1×10^4 TCID50 virus nose drops. Mice were randomly divided into a therapy group and a control group. The therapy group was given 3 mg/kg of A2 orally, and the control group was given an equal amount of blank drug orally. The weight loss of mice in all groups was monitored daily.

MHV-A59 virus = test: Pharmacodynamic evaluation for MHV, high-dose virus group; type: in vivo, C57BL/6 mice; conditions: 10 mg/kg daily, 2×10^6 PFU; for survival rate: all control mice died
Protocol: The effect of A2 on the prevention and treatment of MHV was investigated.
High-dose virus group: 21 male SPF grade C57BL/6 mice, aged 4 weeks, were divided into three groups: control group, precaution group and therapy group. These mice were anesthetized and then injected intrahepatically (i.h.) with 100 μL of DMEM containing 2×10^6 PFU MHV-A59 virus. The precaution group was given the first dose of A2 at 10 mg/kg 24 hours before the challenge, and the therapy group was given the first dose of A2 at 10 mg/kg 24 hours after the challenge, followed by daily continuous administration, both the precaution group and the therapy group being given a daily dose of 10 mg/kg. The weight change, clinical symptoms of disease and mortality of infected mice were monitored daily.

SMILES: [2H]C([2H])([2H])N1CCC(n2cc(-c3cnc(N)c(OCc4cccc(C#CC(C)(C)O)c4)c3)cn2)CC1 [Compound A2, 4-(3-(((2-amino-5-(1-(1-trideuteriomethylpiperidin-4-yl)-1H-pyrazol-4-yl)pyridin-3-yl)oxy)methyl)phenyl)-2-methylbut-3-yn-2-ol]
- remaining percentage of the parent cores after 60 min [1]: 7.0%
- AUC(0-t) (in vivo [2]; iv, 1 mg/kg): 247 ng·h/mL
- clearance (in vivo [2]; iv, 1 mg/kg): 71 mL/min/kg
- AUC(0-t) (in vivo [2]; po, 10 mg/kg): 572 ng·h/mL
- bioavailability (in vivo [2]; po, 10 mg/kg): 23.2%
- bioavailability (in vivo [3]): 18.8%
- AUC(0-t) (in vivo [3]; iv, 1 mg/kg): 949 ng·h/mL
- clearance (in vivo [3]; iv, 1 mg/kg): 16.7 mL/min/kg
- AUC(0-t) (in vivo [3]; po, 10 mg/kg): 1760 ng·h/mL
- body weight of SARS-Cov-2 infected hamsters (SARS-Cov-2 virus; 20 mg/kg daily, oral): gained weight at a much faster rate
- lung weight normalized to total body weight (SARS-Cov-2 virus; all A2 dose groups (5 mg/kg and 20 mg/kg daily, oral)): decreased
- survival rate of H1N1-infected mice (H1N1 (PR8 strain)): significantly higher than that of the blank control group
- survival rate (MHV-A59 virus; precaution group): 42.86%
- average body weight (MHV-A59 virus; precaution group, day 1): 13.39 g
- average body weight (MHV-A59 virus; precaution group, day 8): 16.34 g
- survival rate (MHV-A59 virus; therapy group): 28.57%
- average body weight (MHV-A59 virus; therapy group, day 1): 12.48 g
- average body weight (MHV-A59 virus; therapy group, day 8): 11.39 g
